# Measured values as given in patent publication US8846739B2, “TGR5 agonists” (Exelixis Patent Company LLC, priority 2009, dated 2014).
# Key:
# [1] = target: T1, h-TGR5 (Homo sapiens, UniProt Q8TDU6); assay: TGR5 cAMP Assay using Cisbio cAMP Dynamic 2 htrf assay kit; format: cell-based; settings: hTGR5CRE-luc HEK 293 cells
# T1 sequence (Q8TDU6 1-330): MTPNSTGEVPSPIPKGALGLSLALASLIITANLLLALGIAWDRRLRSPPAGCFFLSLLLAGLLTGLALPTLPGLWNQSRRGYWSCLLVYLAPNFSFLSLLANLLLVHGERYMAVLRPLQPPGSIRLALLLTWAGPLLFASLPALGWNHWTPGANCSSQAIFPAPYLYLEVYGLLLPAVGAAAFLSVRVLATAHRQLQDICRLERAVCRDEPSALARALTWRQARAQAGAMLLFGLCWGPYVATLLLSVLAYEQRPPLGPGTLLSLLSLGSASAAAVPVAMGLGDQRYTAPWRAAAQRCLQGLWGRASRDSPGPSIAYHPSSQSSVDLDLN
# [2] = target: T2, human TGR5 (h-TGR5) (Homo sapiens, UniProt Q8TDU6); assay: TGR5/CRE-Luciferase Assay; format: cell-based; settings: HEK 293 hTGR5/CRE-Luc cells, 6 hours incubation, read-out: CRE-Luc Agonist (EC50)
# T2 sequence (Q8TDU6 1-330): T1 sequence (Q8TDU6 1-330)
# Procedure, shortened: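 HEK 293 CRE-Luciferase cells stably expressing the receptor, plated in DMEM 18-20 h before assay, then exposed to serially diluted compounds (DMEM with 5% DMSO) for 6 h. Luciferase read-out after lysis; EC50 from dose-response.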
Compound,EC50 [1],EC50 [2]
"COc1cc(C(C)(C)c2cnc(CCc3c(F)cc(S(=O)(=O)N[C@@H](CCCC[N+](C)(C)C)C(=O)O)cc3Cl)n2-c2ccc(F)cc2)ccc1Cl [Compound 17n, (S)-5-carboxy-5-(3-chloro-4-(2-(5-(2-(4-chloro-3-methoxyphenyl)propan-2-yl)-1-(4-fluorophenyl)-1H-imidazol-2-yl)ethyl)-5-fluorophenylsulfonamido)-N,N,N-trimethylpentan-1-aminium 2,2,2-trifluoroacetate]",< 100 nM,< 100 nM
"COc1cc(C(C)(C)c2cnc(SCc3c(F)cc(C(=O)N[C@@H]4CCC[N+](C)(C)C4)cc3Cl)n2-c2ccc(F)cc2)ccc1Cl [Example 2g, (3R)-3-({[3-chloro-4-({[5-{1-[4-chloro-3-(methyloxy)phenyl]-1-methylethyl}-1-(4-fluorophenyl)-1H-imidazol-2-yl]thio}methyl)-5-fluorophenyl]carbonyl}amino)-1,1-dimethylpiperidinium]",< 100 nM,< 100 nM
"COc1cc(C(C)(C)c2cnc(SCc3c(F)cc(S(=O)(=O)N4CC[C@@H]([N+](C)(C)C)C4)cc3Cl)n2-c2ccc(F)cc2)ccc1Cl [Compound 11i, (3R)-1-{[3-chloro-4-({[5-{1-[4-chloro-3-(methyloxy)phenyl]-1-methylethyl}-1-(4-fluorophenyl)-1H-imidazol-2-yl]thio}methyl)-5-fluorophenyl]sulfonyl}-N,N,N-trimethylpyrrolidin-3-aminium]",< 100 nM,< 100 nM
"COc1cc(C(C)(C)c2cnc(SCc3c(F)cc(S(=O)(=O)N(CCC[N+](C)(C)C)[C@@H](C(=O)O)C(C)C)cc3F)n2-c2ccc(F)cc2)ccc1Cl [Compound 14q, 3-([(1R)-1-carboxy-2-methylpropyl]{[4-({[5-{1-[4-chloro-3-(methyloxy)phenyl]-1-methylethyl}-1-(4-fluorophenyl)-1H-imidazol-2-yl]thio}methyl)-3,5-difluorophenyl]sulfonyl}amino)-N,N,N-trimethylpropan-1-aminium]",< 100 nM,< 100 nM
"COc1cc(C(C)(C)c2cnc(SCc3c(F)cc(S(=O)(=O)N(CCC[N+](C)(C)C)[C@H](C)C(=O)O)cc3F)n2-c2ccc(F)cc2)ccc1Cl [Compound 14a, (R)-3-(N-(1-carboxyethyl)-4-((5-(2-(4-chloro-3-methoxyphenyl)propan-2-yl)-1-(4-fluorophenyl)-1H-imidazol-2-ylthio)methyl)-3,5-difluorophenylsulfonamido)-N,N,N-trimethylpropan-1-aminium 2,2,2-trifluoroacetate]",< 100 nM,< 100 nM
"COc1cc(C(C)(C)c2cnc(SCc3c(F)cc(S(=O)(=O)N4CCC[C@@H]([N+](C)(C)C)C4)cc3Cl)n2-c2ccc(F)cc2)ccc1Cl [Compound 11g, (3R)-1-{[3-chloro-4-({[5-{1-[4-chloro-3-(methyloxy)phenyl]-1-methylethyl}-1-(4-fluorophenyl)-1H-imidazol-2-yl]thio}methyl)-5-fluorophenyl]sulfonyl}-N,N,N-trimethylpiperidin-3-aminium]",< 100 nM,< 100 nM

# The next lines start with the values.
EC50 [1],EC50 [2],Compound
< 100 nM,< 100 nM,"COc1cc(C(C)(C)c2cnc(COc3c(F)cc(C(=O)NCC[N+](C)(C)C)cc3Cl)n2-c2ccc(F)cc2)ccc1Cl [Example 1e, 2-({[3-chloro-4-({[5-{1-[4-chloro-3-(methyloxy)phenyl]-1-methylethyl}-1-(4-fluorophenyl)-1H-imidazol-2-yl]methyl}oxy)-5-fluorophenyl]carbonyl}amino)-N,N,N-trimethylethanaminium]"
< 100 nM,< 100 nM,"COc1cc(C(C)(C)c2cnc(SCc3c(F)cc(C(=O)N[C@H]4CCC[N+](C)(C)C4)cc3Cl)n2-c2ccc(F)cc2)ccc1F [Example 2p, (3S)-3-({[3-chloro-5-fluoro-4-({[5-{1-[4-fluoro-3-(methyloxy)phenyl]-1-methylethyl}-1-(4-fluorophenyl)-1H-imidazol-2-yl]thio}methyl)phenyl]carbonyl}amino)-1,1-dimethylpiperidinium]"
< 100 nM,< 100 nM,"COc1cc(C(C)(C)c2cnc(SCc3c(F)cc(C(=O)NCC[N+](C)(C)C)cc3Cl)n2-c2ccc(F)cc2)ccc1Cl [Example 1, 2-(3-chloro-4-((S-(2-(4-chloro-3-methoxyphenyl)propan-2-yl)-1-(4-fluorophenyl)-1H-imidazol-2-ylthio)methyl)-S-fluorobenzamido)-N,N,N-trimethylethanaminium chloride]"
< 100 nM,< 100 nM,"COc1cc(C(C)(C)c2cnc(SCc3c(F)cc(S(=O)(=O)N(CCO)CCC[N+](C)(C)C)cc3F)n2-c2ccc(F)cc2)ccc1Cl [Compound 12f, 3-(4-((5-(2-(4-Chloro-3-methoxyphenyl)propan-2-yl)-1-(4-fluorophenyl)-1H-imidazol-2-ylthio)methyl)-3,5-difluoro-N-(2-hydroxyethyl)phenylsulfonamido)-N,N,N-trimethylpropan-1-aminium 2,2,2-trifluoroacetate]"
< 100 nM,< 100 nM,"COc1cc(C(C)(C)c2cnc(SCc3c(F)cc(S(=O)(=O)N(CCC[N+](C)(C)C)[C@@H](CO)C(=O)O)cc3F)n2-c2ccc(F)cc2)ccc1Cl [Compound 14t, 3-([(1S)-1-carboxy-2-hydroxyethyl]{[4-({[5-{1-[4-chloro-3-(methyloxy)phenyl]-1-methylethyl}-1-(4-fluorophenyl)-1H-imidazol-2-yl]thio}methyl)-3,5-difluorophenyl]sulfonyl}amino)-N,N,N-trimethylpropan-1-aminium]"
< 100 nM,< 100 nM,"COc1cc(-n2c(C(C)(C)c3ccc(F)c(Cl)c3)cnc2SCc2c(F)cc(CCC[N+](C)(C)C)cc2F)ccc1F [Compound 19b, 3-(4-((5-(2-(3-chloro-4-fluorophenyl)propan-2-yl)-1-(4-fluoro-3-methoxyphenyl)-1H-imidazol-2-ylthio)methyl)-3,5-difluorophenyl)-N,N,N-trimethylpropan-1-aminium 2,2,2-trifluoroacetate]"
< 100 nM,< 100 nM,"COc1cc(C(C)(C)c2cnc(SCc3c(F)cc(C(=O)NCC[N+](C)(C)CCCS(=O)(=O)[O-])cc3Cl)n2-c2ccc(F)cc2)ccc1Cl [Example 4, 3-((2-(3-Chloro-4-((5-(2-(4-chloro-3-methoxyphenyl)propan-2-yl)-1-(4-fluorophenyl)-1H-imidazol-2-ylthio)methyl)-5-fluorobenzamido)ethyl)dimethylammonio)-propane-1-sulfonate]"
< 100 nM,< 100 nM,"COc1cc(C(C)(C)c2cnc(SCc3c(F)cc(S(=O)(=O)N(CCCC[N+](C)(C)C)C(C)(C)C(=O)O)cc3F)n2-c2ccc(F)cc2)ccc1Cl [Compound 14ai, 4-(N-(2-carboxypropan-2-yl)-4-((5-(2-(4-chloro-3-methoxyphenyl)propan-2-yl)-1-(4-fluorophenyl)-1H-imidazol-2-ylthio)methyl)-3,5-difluorophenylsulfonamido)-N,N,N-trimethylbutan-1-aminium 2,2,2-trifluoroacetate]"
